This passage reports IC50 results from patent US9139568B2 (Merck Patent GmbH, priority 2011, dated 2015).

Structures are written as SMILES.

The experiment deals with P70S6K (Homo sapiens (Human), UniProt P23443, T412E). Kind of experiment: P70S6K Enzyme Assay. Format: biochemical. The conditions noted are these: P70S6K T412E mutant, 24 μM ATP, mobility shift (Caliper). Here is the method: P70S6K inhibitor compounds are diluted and plated in 96 well plates. […] The reaction is incubated for 90 min at 25° C., before the addition of 10 mM EDTA to stop the reaction. The proportion of substrate and product (phosphorylated) peptide is analysed on a Caliper Life Sciences Lab Chip 3000, using a pressure of −1.4 psi, and upstream and downstream voltages of −3000 and −700 respectively. Product peaks are resolved before substrate peaks on the resulting chromatograms.
Chain of P70S6K (P23443 1-421 T412E): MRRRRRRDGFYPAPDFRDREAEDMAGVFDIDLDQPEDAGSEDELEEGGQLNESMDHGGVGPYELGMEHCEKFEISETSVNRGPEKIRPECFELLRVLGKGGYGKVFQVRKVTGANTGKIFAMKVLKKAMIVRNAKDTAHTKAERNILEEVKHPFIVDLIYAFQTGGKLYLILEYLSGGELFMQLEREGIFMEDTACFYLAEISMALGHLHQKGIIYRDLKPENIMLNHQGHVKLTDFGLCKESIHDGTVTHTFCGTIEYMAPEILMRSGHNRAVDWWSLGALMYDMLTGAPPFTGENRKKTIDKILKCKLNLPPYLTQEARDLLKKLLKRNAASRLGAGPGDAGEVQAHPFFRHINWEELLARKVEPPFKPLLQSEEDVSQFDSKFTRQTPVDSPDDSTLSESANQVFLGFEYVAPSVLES

For the compound `NC(=O)c1ccc(N2CCC(CNC(=O)c3ccc(C(F)(F)F)cc3F)C2)c2cncnc12` (racemic) [Example 55, 5-(3-((2-fluoro-4-(trifluoromethyl)benzamido)methyl)pyrrolidin-1-yl)quinazoline-8-carboxamide], the concentration for half-maximal inhibition (IC50) turned out to be 290 nM.
As for `NC(=O)c1ccc(NC(=O)C2C[C@@H](c3ccccc3)CN2)c2cccnc12` (stereo partly drawn) [Example 28, 5-((4S)-4-phenylpyrrolidine-2-carboxamido)quinoline-8-carboxamide], the IC50 amounted to 578 nM.
The same measure for `NC(=O)c1ccc(N2CCC(NC(=O)Cc3ccccc3)C2)c2cncnc12` (racemic) [Example 47, 5-(3-(2-phenylacetamido)pyrrolidin-1-yl)quinazoline-8-carboxamide]: 7900 nM.
On to `NC(=O)c1ccc(NCc2ccc(F)c(F)c2)c2cccnc12` [Example 35, 5-(3,4-Difluorobenzylamino)-quinoline-8-carboxamide], for which the IC50 was more than 1000 nM.
As for `NC(=O)c1ccc(N2CCC(CNC(=O)c3ccc(F)cc3F)C2)c2cncnc12` (racemic) [Example 112, 5-{3-[(2,4-Difluoro-benzoylamino)-methyl]-pyrrolidin-1-yl}-quinazoline-8-carboxylic acid amide], the figure is 260 nM; as for `NC(=O)c1ccc(N2CC[C@@](N)(C(=O)Nc3ccccc3)C2)c2cncnc12` (single isomer, unassigned) [Example 84], 2150 nM; as for `NC(=O)c1ccc(N2CCN(c3ccccc3F)CC2)c2cncnc12` [Example 121, 5-[4-(2-fluorophenyl)-piperazin-1-yl]-quinazoline-8-carboxylic acid amide], 12000 nM.
The same measure for `NC(=O)c1ccc(N2CC[C@H](c3ccc(F)cc3)[C@H](N)C2)c2cncnc12` (racemic) [Example 86, 5-[(3S,4R)-3-Amino-4-(4-fluoro-phenyl)-piperidin-1-yl]-quinazoline-8-carboxylic acid amide]: 250 nM.
The same measure for `NC(=O)c1ccc(N2CC[C@@](N)(C(=O)Nc3ccc(F)c(C(F)(F)F)c3)C2)c2cncnc12` (single isomer, unassigned) [Example 116]: 520 nM; for `NC(=O)c1ccc(N2CC[C@H](c3cccc(F)c3)[C@@H](N)C2)c2cncnc12` (racemic) [Example 89, 5-[(3R,4R)-3-Amino-4-(3-fluoro-phenyl)-piperidin-1-yl]-quinazoline-8-carboxylic acid amide]: 2400 nM.
For `NC(=O)c1ccc(NC(=O)C2NC[C@@H]2c2ccccc2)c2cccnc12` (stereo partly drawn) [Example 30, 5-((3S)-3-phenylazetidine-2-carboxamido)quinoline-8-carboxamide], the IC50 is more than 1000 nM.
As for `NC(=O)c1ccc(N2CCC(CNC(=O)Cc3ccccc3)C2)c2cncnc12` (stereo not drawn) [Example 118], the figure is 260 nM.
As for `NC(=O)c1ccc(N2CCC(CNC(=O)c3ccc(F)c(F)c3)C2)c2cncnc12` (racemic) [Example 54, 5-(3-((3,4-difluorobenzamido)methyl)pyrrolidin-1-yl)quinazoline-8-carboxamide], the figure is 233 nM.
Regarding `NC(=O)c1ccc(NCC2(C(=O)Nc3ccccc3)CCNC2)c2cccnc12` (racemic) [Example 20, 5-(((3-(phenylcarbamoyl)pyrrolidin-3-yl)methyl)amino)quinoline-8-carboxamide], the IC50 is more than 1000 nM.
The same measure for `NC(=O)c1ccc(N2CCC(N)(C(=O)Nc3ccc(F)cc3)C2)c2cncnc12` (racemic) [Example 43, 5-[3-amino-3-[(4-fluorophenyl)carbamoyl]pyrrolidin-1-yl]quinazoline-8-carboxamide]: 1200 nM; for `NC(=O)c1ccc(N2CCC(N)(CNC(=O)c3ccc(F)cc3O)C2)c2cncnc12` (racemic) [Example 10, 5-(3-amino-3-((4-fluoro-2-hydroxybenzamido)methyl)pyrrolidin-1-yl)quinazoline-8-carboxamide]: more than 1000 nM; for `NC(=O)c1ccc(NC(=O)C(N)c2ccccc2)c2cccnc12` (racemic) [Example 29, 5-(2-amino-2-phenylacetamido)quinoline-8-carboxamide]: more than 1000 nM.
Consider `NC(=O)c1ccc(N2CCC(N)(C(=O)Nc3cccc(F)c3)C2)c2cncnc12` (racemic) [Example 45, 5-(3-amino-3-((3-fluorophenyl)carbamoyl)pyrrolidin-1-yl)quinazoline-8-carboxamide], for which the IC50 was 2000 nM.
Take `NC(=O)c1ccc(NCCCc2ccccc2)c2cccnc12` [Example 41, 5-(Phenylpropylamino)-quinoline-8-carboxamide]: the IC50 was more than 1000 nM.
The same measure for `NC(=O)c1ccc(NCCc2ccccc2)c2cccnc12` [Example 40, 5-(Phenylethylamino)-quinoline-8-carboxamide]: more than 1000 nM; for `NC(=O)c1ccc(N2CCC(NC(=O)c3ccc(F)c(F)c3)C2)c2cncnc12` (racemic) [Example 50, 5-(3-(3,4-difluorobenzamido)pyrrolidin-1-yl)quinazoline-8-carboxamide]: 380 nM.
With `NC(=O)c1ccc(NCc2cccc(Cl)c2)c2cccnc12` [Example 34, 5-(3-Chlorobenzylamino)-quinoline-8-carboxamide], the IC50 amounted to 140 nM.
For `NC(=O)c1ccc(N2CCC(N)(CNC(=O)c3ccc(F)cc3F)C2)c2cncnc12` (racemic) [Example 9, 5-(3-amino-3-((2,4-difluorobenzamido)methyl)pyrrolidin-1-yl)quinazoline-8-carboxamide], the concentration for half-maximal inhibition (IC50) is more than 1000 nM.
The same measure for `NC(=O)c1ccc(NCC2(C(=O)Nc3ccccc3)CCNCC2)c2cncnc12` [Example 14, 5-(((4-(phenylcarbamoyl)piperidin-4-yl)methyl)amino)quinazoline-8-carboxamide]: more than 1000 nM; for `NC(=O)c1ccc(N2CC[C@](N)(C(=O)Nc3ccccc3)C2)c2cncnc12` (single isomer, unassigned) [Example 85]: 11500 nM; for `NC(=O)c1ccc(N2CC[C@H](CNC(=O)c3ccc(F)c(F)c3)C2)c2cncnc12` (single isomer, unassigned) [Example 114]: 470 nM.
In the case of `NC(=O)c1ccc(NCC2(C(=O)Nc3ccccc3)CCNC2)c2cncnc12` (racemic) [Example 12, 5-(((3-(phenylcarbamoyl)pyrrolidin-3-yl)methyl)amino)quinazoline-8-carboxamide], the IC50 is 650 nM.
As for `CNC[C@@H](Nc1ccc(C(N)=O)c2ncccc12)c1cccc(F)c1` [Example 16, (S)-5-((1-(3-fluorophenyl)-2-(methylamino)ethyl)amino)quinoline-8-carboxamide], the figure is more than 1000 nM; as for `NC(=O)c1ccc(N[C@@H]2CNC[C@H]2c2cccc(OC(F)(F)F)c2)c2cccnc12` (single isomer, unassigned) [Example 23], 690 nM.
Take `NC(=O)c1ccc(N2CC[C@H](c3ccc(F)cc3)[C@@H](N)C2)c2cncnc12` (racemic) [Example 87, 5-[(3R,4R)-3-Amino-4-(4-fluoro-phenyl)-piperidin-1-yl]-quinazoline-8-carboxylic acid amide]: the IC50 was 7100 nM.
The same measure for `NC(=O)c1ccc(NCc2ccc(F)c(C(F)(F)F)c2)c2cccnc12` [Example 37, 5-(4-Fluoro-3-trifluoromethylbenzylamino)-quinoline-8-carboxamide]: 695 nM; for `NC(=O)c1ccc(N2CCC(CNC(=O)c3cc(F)ccc3F)C2)c2cncnc12` (racemic) [Example 106, 5-(3-((2,5-difluorobenzamido)methyl)pyrrolidin-1-yl)quinazoline-8-carboxamide]: 510 nM.
As for `NC(=O)c1ccc(NC2CNC[C@H]2c2cc(F)cc(Cl)c2)c2cccnc12` (stereo partly drawn) [Example 26, 5-(((4R)-4-(3-chloro-5-fluorophenyl)pyrrolidin-3-yl)amino)quinoline-8-carboxamide], the figure is 350 nM; as for `NC(=O)c1ccc(N2CC[C@@H](CNC(=O)c3ccc(F)c(F)c3)C2)c2cncnc12` (single isomer, unassigned) [Example 115], 450 nM; as for `NC(=O)c1ccc(N2CCN(c3ccc(Cl)cc3)CC2)c2cncnc12` [Example 93, 5-[4-(4-chloro-phenyl)-piperazin-1-yl]-quinazoline-8-carboxylic acid amide], 1000 nM.
The same measure for `NC(=O)c1ccc(N2CC[C@](N)(C(=O)Nc3ccc(F)c(C(F)(F)F)c3)C2)c2cncnc12` (single isomer, unassigned) [Example 117]: 380 nM; for `NC(=O)c1ccc(NC2CNCCC2c2ccccc2)c2cncnc12` (racemic) [Example 3, 5-((4-phenylpiperidin-3-yl)amino)quinazoline-8-carboxamide]: 4.1 nM.
On to `NC(=O)c1ccc(NC2CNC[C@@H]2c2cccc(OC(F)(F)F)c2)c2cccnc12` (single isomer, unassigned) [Example 22], for which the IC50 came to 31 nM.
Turning to `NC(=O)c1ccc(N2CCC(NC(=O)Cc3ccc(F)cc3)C2)c2cncnc12` (racemic) [Example 51, 5-(3-(2-(4-fluorophenyl)acetamido)pyrrolidin-1-yl)quinazoline-8-carboxamide], the IC50 was 5400 nM.

The IC50 is the concentration needed to halve the response being measured.
